# Experimental data as given in patent publication US10722501B2 (BAYER AKTIENGESELLSCHAFT, priority 2016, dated 2020).
# Biological target: T1, recombinant full-length human prolyl endopeptidase (PREP) (Homo sapiens, UniProt P48147)
# T1 construct: To recombinant full-length human prolyl endopeptidase (PREP, R&D-Systems, 4308-SE); purchased R&D-Systems 4308-SE
# T1 sequence (P48147 1-710): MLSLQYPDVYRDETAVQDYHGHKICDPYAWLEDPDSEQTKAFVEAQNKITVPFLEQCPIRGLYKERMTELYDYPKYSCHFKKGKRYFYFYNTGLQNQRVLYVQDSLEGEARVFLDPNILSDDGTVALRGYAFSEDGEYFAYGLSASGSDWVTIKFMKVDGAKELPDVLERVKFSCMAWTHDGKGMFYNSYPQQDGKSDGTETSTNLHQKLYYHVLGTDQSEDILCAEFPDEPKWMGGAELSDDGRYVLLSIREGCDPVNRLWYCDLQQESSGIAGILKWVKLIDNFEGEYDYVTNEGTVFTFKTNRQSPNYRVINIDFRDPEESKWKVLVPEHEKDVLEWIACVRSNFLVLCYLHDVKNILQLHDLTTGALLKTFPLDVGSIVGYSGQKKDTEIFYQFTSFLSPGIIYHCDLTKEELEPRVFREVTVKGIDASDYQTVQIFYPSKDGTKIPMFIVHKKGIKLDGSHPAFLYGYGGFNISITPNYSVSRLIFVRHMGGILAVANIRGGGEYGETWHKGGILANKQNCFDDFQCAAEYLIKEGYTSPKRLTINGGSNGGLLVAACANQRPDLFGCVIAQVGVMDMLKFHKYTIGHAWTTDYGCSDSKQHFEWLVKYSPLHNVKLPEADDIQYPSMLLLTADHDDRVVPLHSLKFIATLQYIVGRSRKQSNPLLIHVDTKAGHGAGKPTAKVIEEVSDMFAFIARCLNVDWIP
# Experiment: Biochemical human prolyl endopeptidase (PREP) assay with fluorescently labelled substrate
# Settings: substrate Z-Gly-Pro-AMC 50 μM, 32° C., 60 min; some as mean values from multiple independent determinations
# Method in brief: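 Initial rates of fluorescence increase from 50 μM Z-Gly-Pro-AMC cleavage (ex 360/em 465 nm, 60 min, 32° C) give percent PREP activity versus no-compound control, and IC50 is interpolated. Enzyme used at 0.4 nM (final, example) in Tris pH 7.5 with EDTA, GSH, BSA and Brij-35; compounds span 1 nM to 30 μM.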
row,Compound,IC50 [nM]
1,"O=C([C@@H]1CCCc2nn(Cc3ccnc(C(F)(F)F)c3F)c(=O)n21)N1CC2CC1C2 [Example 187, (5S)-5-(2-Azabicyclo[2.1.1]hex-2-ylcarbonyl)-2-{[3-fluoro-2-(trifluoromethyl)pyridin-4-yl]methyl}-5,6,7,8-tetrahydro[1,2,4]triazolo[4,3-a]pyridin-3(2H)-one]",102
2,"Cc1cc(Cn2nc3n(c2=O)C(C(=O)N2CCCC2)CCC3)no1 (racemic) [Example 61, (5RS)-2-[(5-Methyl-1,2-oxazol-3-yl)methyl]-5-(pyrrolidin-1-ylcarbonyl)-5,6,7,8-tetrahydro[1,2,4]triazolo[4,3-a]pyridin-3(2H)-one]",16
3,"O=C(C1C(C(F)(F)F)CCc2nn(Cc3ccc(C(F)(F)F)nc3)c(=O)n21)N1CC(F)C1 (racemic) [Example 304, (5RS,6RS)-5-[(3-Fluoroazetidin-1-yl)carbonyl]-6-(trifluoromethyl)-2-{[6-(trifluoromethyl)pyridin-3-yl]methyl}-5,6,7,8-tetrahydro[1,2,4]triazolo[4,3-a]pyridin-3(2H)-one]",35
4,"O=C(C1CC(C(F)(F)F)Cc2nn(Cc3ccc(Cl)nc3)c(=O)n21)N1CC[C@H](F)C1 (mixture of isomers) [Example 241, (5RS,7RS)-2-[(6-Chloropyridin-3-yl)methyl]-5-{[(3S)-3-fluoropyrrolidin-1-yl]carbonyl}-7-(trifluoromethyl)-5,6,7,8-tetrahydro[1,2,4]triazolo[4,3-a]pyridin-3(2H)-one]",5.8
5,"O=C(C1CCCc2nn(Cc3ccc(F)c(Cl)c3)c(=O)n21)N1CCC(F)(F)C1 (racemic) [Example 86, (5RS)-2-(3-Chloro-4-fluorobenzyl)-5-[(3,3-difluoropyrrolidin-1-yl)carbonyl]-5,6,7,8-tetrahydro[1,2,4]triazolo[4,3-a]pyridin-3(2H)-one]",1
6,"Cc1ccc(Cn2nc3n(c2=O)C(C(=O)N2CCCC2)CCC3C)cc1 (racemic) [Example 223, (5RS,8RS)-8-Methyl-2-(4-methylbenzyl)-5-(pyrrolidin-1-ylcarbonyl)-5,6,7,8-tetrahydro[1,2,4]triazolo[4,3-a]pyridin-3(2H)-one]",0.415
7,"O=C([C@@H]1CCCc2nn(Cc3ccc(C(F)F)nc3)c(=O)n21)N1CCC(F)(F)C1 [Example 208, (5S)-2-{[6-(Difluoromethyl)pyridin-3-yl]methyl}-5-[(3,3-difluoropyrrolidin-1-yl)carbonyl]-5,6,7,8-tetrahydro[1,2,4]triazolo[4,3-a]pyridin-3(2H)-one]",15

# Second part, the compound after the results:
row,IC50 [nM],Compound
1,0.13,"COc1ccc(Cn2nc3n(c2=O)[C@H](C(=O)N2CCC[C@H]2C#N)CCC3)cn1 [Example 432, (2S)-1-({(5S)-2-[(6-Methoxypyridin-3-yl)methyl]-3-oxo-2,3,5,6,7,8-hexahydro[1,2,4]triazolo[4,3-a]pyridin-5-yl}carbonyl)pyrrolidine-2-carbonitrile]"
2,1.2,"CCn1nc(C(F)(F)F)cc1Cn1nc2n(c1=O)[C@H](C(=O)N1C[C@@H](F)[C@@H](F)C1)CCC2 [Example 361, (5S)-5-{[(3R,4S)-3,4-Difluoropyrrolidin-1-yl]carbonyl}-2-{[1-ethyl-3-(trifluoromethyl)-1H-pyrazol-5-yl]methyl}-5,6,7,8-tetrahydro[1,2,4]triazolo[4,3-a]pyridin-3(2H)-one]"
3,3.9,"CC1Cc2nn(Cc3ccc(C(F)(F)F)nc3)c(=O)n2C(C(=O)N2CCC(F)(F)C2)C1 (racemic) [Example 332, (5RS,7RS)-5-[(3,3-Difluoropyrrolidin-1-yl)carbonyl]-7-methyl-2-{[6-(trifluoromethyl)pyridin-3-yl]methyl}-5,6,7,8-tetrahydro[1,2,4]triazolo[4,3-a]pyridin-3(2H)-one]"
4,13.5,"O=C([C@@H]1CCCc2nn(Cc3nccc(C(F)(F)F)c3Cl)c(=O)n21)N1CC(O)C1 [Example 390, (5S)-2-{[3-Chloro-4-(trifluoromethyl)pyridin-2-yl]methyl}-5-[(3-hydroxyazetidin-1-yl)carbonyl]-5,6,7,8-tetrahydro[1,2,4]triazolo[4,3-a]pyridin-3(2H)-one]"
